# In patent US9963445B2, “Chemical compounds” (SYNGENTA PARTICIPATIONS AG, priority 2013, dated 2018):
# What was measured:
# Assay type in all cases: in vivo
# [1] = test system: Echinochloa crus-galli; assay: Pre-emergence herbicidal activity, glasshouse pot test; conditions: pre-emergence spray, rate 1000 g/ha, evaluated after 13 days, scale 0-5
# How it was run: (§1)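 Glasshouse conditions were 24/16 °C day/night with 14 h light and 65% humidity throughout. Soil was sprayed before emergence, one day after sowing, using an acetone/water (50:50) formulation with 0.5% Tween 20; injury was scored 0–5 after 13 days.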
# [2] = test system: zea mays; assay: as above; conditions: pre-emergence spray, rate 1000 g/ha, evaluated after 13 days, scale 0-5
# How it was run: as §1
# [3] = test system: Alopecurus myosuroides; assay: as above; conditions: pre-emergence spray, rate 1000 g/ha, evaluated after 13 days, scale 0-5
# How it was run: as §1
# [4] = test system: Setaria faberi; assay: as above; conditions: pre-emergence spray, rate 1000 g/ha, evaluated after 13 days, scale 0-5
# How it was run: as §1
# [5] = test system: Amaranthus retroflexus; assay: as above; conditions: pre-emergence spray, rate 1000 g/ha, evaluated after 13 days, scale 0-5
# How it was run: as §1
# [6] = test system: Abutilon theophrasti; assay: as above; conditions: pre-emergence spray, rate 1000 g/ha, evaluated after 13 days, scale 0-5
# How it was run: as §1
# [7] = test system: Echinochloa crus-galli; assay: Post-emergence herbicidal activity, glasshouse pot test; parameters: key: 0 = no damage to plant, 5 = total damage to plant; conditions: Application post-emergence, rate 1000 g/ha, evaluated after 13 days
# How it was run: (§2)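 Pot-grown seedlings, sown in standard soil, were sprayed 8 days after sowing and kept in a controlled glasshouse (24/16 °C, 14 h photoperiod, 65% humidity). Injury was assessed visually 13 days later on a scale where 5 means total damage.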
# [8] = test system: zea mays; assay: as above; parameters: key: 0 = no damage to plant, 5 = total damage to plant; conditions: Application post-emergence, rate 1000 g/ha, evaluated after 13 days
# How it was run: as §2
# [9] = test system: Alopecurus myosuroides; assay: as above; parameters: key: 0 = no damage to plant, 5 = total damage to plant; conditions: Application post-emergence, rate 1000 g/ha, evaluated after 13 days
# How it was run: as §2
# [10] = test system: Setaria faberi; assay: as above; parameters: key: 0 = no damage to plant, 5 = total damage to plant; conditions: Application post-emergence, rate 1000 g/ha, evaluated after 13 days
# How it was run: as §2
# [11] = test system: Amaranthus retroflexus; assay: as above; parameters: key: 0 = no damage to plant, 5 = total damage to plant; conditions: Application post-emergence, rate 1000 g/ha, evaluated after 13 days
# How it was run: as §2
# [12] = test system: Abutilon theophrasti; assay: as above; parameters: key: 0 = no damage to plant, 5 = total damage to plant; conditions: Application post-emergence, rate 1000 g/ha, evaluated after 13 days
# How it was run: as §2
structure (smiles),measurement,setting,value
COC1=C(C)C(O)N(c2cc(C(F)(F)F)c(Cl)nn2)C1=O (stereo not drawn) [BI9],"ECHCG damage score, application pre-emergence",[1],4
same,"ZEAMX damage score, application pre-emergence",[2],2
same,"ALOMY damage score, application pre-emergence",[3],4
same,"SETFA damage score, application pre-emergence",[4],2
same,"AMARE damage score, application pre-emergence",[5],5
same,"ABUTH damage score, application pre-emergence",[6],1
same,ECHCG herbicidal damage score,[7],5
same,ZEAMX herbicidal damage score,[8],4
same,ALOMY herbicidal damage score,[9],5
same,SETFA herbicidal damage score,[10],5
same,AMARE herbicidal damage score,[11],5
same,ABUTH herbicidal damage score,[12],5
COC1=C(C)C(O)N(c2cc(C(C)F)c(Cl)nn2)C1=O (stereo not drawn) [BI10],"ECHCG damage score, application pre-emergence",[1],4
same,"ZEAMX damage score, application pre-emergence",[2],2
same,"ALOMY damage score, application pre-emergence",[3],3
same,"SETFA damage score, application pre-emergence",[4],2
same,"AMARE damage score, application pre-emergence",[5],5
same,"ABUTH damage score, application pre-emergence",[6],5
same,ECHCG herbicidal damage score,[7],5
same,ZEAMX herbicidal damage score,[8],3
same,ALOMY herbicidal damage score,[9],4
same,SETFA herbicidal damage score,[10],5
same,AMARE herbicidal damage score,[11],5
same,ABUTH herbicidal damage score,[12],5
COC1=C(C)C(O)N(c2cc(C(C)(C)F)c(-c3ccc(F)cc3)nn2)C1=O (stereo not drawn) [BI11],"ECHCG damage score, application pre-emergence",[1],2
same,"ZEAMX damage score, application pre-emergence",[2],2
same,"ALOMY damage score, application pre-emergence",[3],2
same,"SETFA damage score, application pre-emergence",[4],4
same,"AMARE damage score, application pre-emergence",[5],5
same,"ABUTH damage score, application pre-emergence",[6],4
same,ECHCG herbicidal damage score,[7],4
same,ZEAMX herbicidal damage score,[8],2
same,ALOMY herbicidal damage score,[9],4
same,SETFA herbicidal damage score,[10],5
same,AMARE herbicidal damage score,[11],5
same,ABUTH herbicidal damage score,[12],4
CC#Cc1nnc(N2C(=O)C(OC)=C(C)C2O)cc1C(C)(C)F (stereo not drawn) [BI12],"ECHCG damage score, application pre-emergence",[1],4
same,"ZEAMX damage score, application pre-emergence",[2],3
same,"ALOMY damage score, application pre-emergence",[3],2
same,"SETFA damage score, application pre-emergence",[4],5
same,"AMARE damage score, application pre-emergence",[5],5
same,"ABUTH damage score, application pre-emergence",[6],4
same,ECHCG herbicidal damage score,[7],5
same,ZEAMX herbicidal damage score,[8],4
same,ALOMY herbicidal damage score,[9],4
same,SETFA herbicidal damage score,[10],5
same,AMARE herbicidal damage score,[11],5
same,ABUTH herbicidal damage score,[12],5
C=C(OCC)c1nnc(N2C(=O)C(OC)=C(C)C2O)cc1C(C)(C)F (stereo not drawn) [BI13],"ECHCG damage score, application pre-emergence",[1],5
same,"ZEAMX damage score, application pre-emergence",[2],2
same,"ALOMY damage score, application pre-emergence",[3],4
same,"SETFA damage score, application pre-emergence",[4],5
same,"AMARE damage score, application pre-emergence",[5],5
same,"ABUTH damage score, application pre-emergence",[6],5
same,ECHCG herbicidal damage score,[7],5
same,ZEAMX herbicidal damage score,[8],2
same,ALOMY herbicidal damage score,[9],5
same,SETFA herbicidal damage score,[10],5
same,AMARE herbicidal damage score,[11],5
same,ABUTH herbicidal damage score,[12],5
COC1=C(C)C(O)N(c2cc(C(C)(C)F)c(Cl)nn2)C1=O (stereo not drawn) [BI14],"ECHCG damage score, application pre-emergence",[1],4
same,"ZEAMX damage score, application pre-emergence",[2],3
same,"ALOMY damage score, application pre-emergence",[3],3
same,"SETFA damage score, application pre-emergence",[4],5
same,"AMARE damage score, application pre-emergence",[5],5
same,"ABUTH damage score, application pre-emergence",[6],3
same,ECHCG herbicidal damage score,[7],5
same,ZEAMX herbicidal damage score,[8],4
same,ALOMY herbicidal damage score,[9],5
same,SETFA herbicidal damage score,[10],5
same,AMARE herbicidal damage score,[11],5
same,ABUTH herbicidal damage score,[12],5
COC1=C(C)C(O)N(c2cc(C(C)(C)F)c(C#N)nn2)C1=O (stereo not drawn) [BI15],"ECHCG damage score, application pre-emergence",[1],5
same,"ZEAMX damage score, application pre-emergence",[2],2
same,"ALOMY damage score, application pre-emergence",[3],4
same,"SETFA damage score, application pre-emergence",[4],5
same,"AMARE damage score, application pre-emergence",[5],5
same,"ABUTH damage score, application pre-emergence",[6],5
same,ECHCG herbicidal damage score,[7],5
same,ZEAMX herbicidal damage score,[8],2
same,ALOMY herbicidal damage score,[9],4
same,SETFA herbicidal damage score,[10],5
same,AMARE herbicidal damage score,[11],5
same,ABUTH herbicidal damage score,[12],5
